Assays:
B1 bradykinin receptor = target: T1, B1 bradykinin receptor (Homo sapiens, UniProt P46663); assay: Inhibitory constant against human Bradykinin receptor B1 expressed in chinese hamster ovary cells; type: cell-based, CHO
T1 sequence (P46663 whole entry): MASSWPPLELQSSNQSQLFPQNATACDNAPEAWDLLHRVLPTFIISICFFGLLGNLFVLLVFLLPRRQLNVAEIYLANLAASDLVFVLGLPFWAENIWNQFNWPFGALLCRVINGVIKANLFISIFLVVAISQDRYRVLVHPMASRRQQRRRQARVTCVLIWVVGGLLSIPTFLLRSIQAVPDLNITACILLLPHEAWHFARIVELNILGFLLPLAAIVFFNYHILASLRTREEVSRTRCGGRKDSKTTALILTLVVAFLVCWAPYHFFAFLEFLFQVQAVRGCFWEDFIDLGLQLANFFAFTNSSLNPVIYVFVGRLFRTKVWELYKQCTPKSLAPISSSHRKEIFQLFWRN

[1] = Clearance in the Sprague Dawley rats; (n = 3); type: ADME, organism-based; settings: rat, in vivo
[2] = Oral bioavailability in the Sprague Dawley rats; (n = 3); type: ADME, organism-based; settings: rat, in vivo
[3] = Half life in the Sprague Dawley rats; (n = 3); type: ADME; settings: rat, in vivo
[4] = Half life in the Sprague Dawley rats; (n = 3); ND = not determined; type: ADME; settings: rat, in vivo

| Ki (B1 bradykinin receptor) | clearance [1] | bioavailability [2] | half-life [3] | half-life [4] | SMILES |
| --- | --- | --- | --- | --- | --- |
| 0.23 µM | – | – | – | – | COC(=O)c1ccccc1-c1ccc(CNc2ncccc2NC(=O)C(C)C)cc1 |
| 1.28 µM | – | – | – | – | COC(=O)c1ccccc1-c1ccc(CNc2ncccc2NC(=O)CN(C)C)cc1 |
| 0.006 µM | 1.86 L/h/kg | 25% | 30 min | – | CNC(=O)c1ccccc1-c1ccc([C@@H](C)Nc2nccc(C)c2NC(=O)CC(F)(F)F)cc1 |
| – | 1.8 L/h/kg | 2% | 12 min | – | CCCCC(=O)Nc1cccnc1NCc1ccc(-c2ccccc2C(=O)OC)cc1 |
| 0.119 µM | – | – | – | – | CCC(=O)Nc1cccnc1NCc1ccc(-c2ccccc2C(=O)OC)cc1 |
| 0.0026 µM | 1.11 L/h/kg | 27% | 12 min | – | COC(=O)c1ccccc1-c1ccc([C@@H](C)Nc2nccc(C)c2NC(=O)CC#N)cc1 |
| 0.39 µM | – | – | – | – | COCC(=O)Nc1cccnc1NCc1ccc(-c2ccccc2C(=O)OC)cc1 |
| 0.011 µM | 1.8 L/h/kg | 79% | 60 min | – | CNC(=O)c1ccccc1-c1ccc(CNc2nccc(C)c2NC(=O)CC(F)(F)F)cc1 |
| – | 2.1 L/h/kg | 9% | – | 12 min | COC(=O)c1ccccc1-c1ccc(CNc2ncccc2NC(=O)CC(F)(F)F)cc1 |
| 0.0071 µM | 0.84 L/h/kg | 40% | 24 min | – | COC(=O)c1ccccc1-c1ccc(CNc2nccc(C)c2NC(=O)CC(F)(F)F)cc1 |
| 0.033 µM | 0.9 L/h/kg | 95% | 18 min | – | CNC(=O)c1ccccc1-c1ccc(CNc2ncccc2NC(=O)CC(F)(F)F)cc1 |
| 0.04 µM | – | – | – | – | COC(=O)c1ccccc1-c1ccc(CNc2ncccc2NC(=O)CS(C)(=O)=O)cc1 |
| 0.0018 µM | 0.48 L/h/kg | 17% | 54 min | – | COC(=O)c1ccccc1-c1ccc([C@@H](C)Nc2nccc(C)c2NC(=O)CC(F)(F)F)cc1 |
| 0.088 µM | 1.38 L/h/kg | 15% | 24 min | – | CCCC(=O)Nc1cccnc1NCc1ccc(-c2ccccc2C(=O)OC)cc1 |
| 0.0115 µM | 0.258 L/h/kg | 19% | 120 min | – | Cc1ccnc(NCc2ccc(-c3ccccc3C(=O)O)cc2)c1NC(=O)CC#N |
| 0.011 µM | 1.08 L/h/kg | 28% | 48 min | – | COC(=O)c1ccccc1-c1ccc(CNc2ncccc2NC(=O)CC#N)cc1 |

— ChEMBL document CHEMBL1144392, “2,3-Diaminopyridine as a platform for designing structurally unique nonpeptide bradykinin B1 receptor antagonists” (Bioorg Med Chem Lett, 2005)
